Measurements from patent US12391679B2, “Benzamide-substituted bicyclic imidazo- and pyrazolo-fused -pyridine, -pyrimide, and -pyridazine compounds for treatment of inflammatory diseases” (ONCO3R Therapeutics BV, priority 2019, dated 2025).

Assays:
SIK1 = target: T1, SIK1 (Homo sapiens, UniProt P57059); assay: ADP-Glo kinase assay, SIK1; assay type: biochemical
T1 construct: purchased Carna Biosciences 02-131
How it was run: (§1)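 ADP-Glo format, luminescent. Room-temperature kinase reaction lasting 120 min, followed by ATP removal (40 min) and ADP detection (30 min); 10 μM staurosporine serves as full-inhibition control, 1% DMSO as uninhibited control.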

SIK3 = target: T2, SIK3 (Homo sapiens, UniProt Q9Y2K2); assay: ADP-Glo kinase assay, SIK3; assay type: biochemical
T2 construct: purchased SignalChem S12-11G-100
T2 sequence (Q9Y2K2 59-365 limits assumed): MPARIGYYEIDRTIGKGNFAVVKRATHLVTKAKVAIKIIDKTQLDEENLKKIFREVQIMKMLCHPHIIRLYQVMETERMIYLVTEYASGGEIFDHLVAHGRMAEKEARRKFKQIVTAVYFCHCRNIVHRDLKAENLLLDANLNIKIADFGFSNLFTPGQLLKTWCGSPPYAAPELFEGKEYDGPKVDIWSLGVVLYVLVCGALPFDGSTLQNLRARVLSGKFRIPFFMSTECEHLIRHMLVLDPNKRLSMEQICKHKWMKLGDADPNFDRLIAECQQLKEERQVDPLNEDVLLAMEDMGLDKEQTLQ
How it was run: as §1

[1] = test system: LPS triggered IL-10 secretion in monocytes; assay: Monocytes assay: LPS-triggered IL-10 (ELISA); assay type: cell-based, human; conditions: Homo sapiens, Monocyte, LPS-triggered IL-10 induction, median maximal fold change vs LPS only, read-out: IL-10 FCmax median
Protocol: (§2) This assay evaluates illustrative compounds of the invention for their inhibition of LPS-induced TNFα and LPS triggered IL-10 secretion in monocytes.
(§3) PBMCs are isolated from human blood samples (buffycoats). The buffy coat is aseptically transferred into a 50 mL Falcon tube, and diluted 1/2 in PBS. Falcon tubes are filled with 20 mL Lymphoprep™, on top of which 25 mL of the buffy coat is carefully added, tubes are centrifuged for 35 min at 400 g in temperature controlled centrifuge, without brake, at 25° C. PBMCs are aspirated from the white interface layer between sample and Lymphoprep™. PBMCs are washed five times in PBS.
(§4) PBMCs are centrifuged at 300×g for 10 min and resuspended at a density of 1.0*10^7 cells/80 μL Miltenyi buffer (PBS, pH 7.4, 1% FBS, 2 mM EDTA).
(§5) Starting from this point of the protocol all steps are performed on ice. 20 μL of CD14+ micro-beads are added per 1.0*10^7 cells, the tube is mixed and incubated for 15 min in the fridge at 4° C. Cell suspension volume is adjusted to total volume of 100 mL using Miltenyi buffer, mixed gently and subsequently centrifuged for 10 min at 300×g. Supernatant is discarded and cell pellet is resuspended in 12 mL of Miltenyi buffer.
(§6) Four LS columns are placed in the MACS Separator (magnet) from Miltenyi Biotec, and are prewet by rinsing with 3 mL of MACS buffer per column. Three mL of cell suspension is added onto the column (max 1*10^8 of labelled cells/column), and columns are subsequently washed 3 times with 3 mL of Miltenyi buffer.
(§7) The columns are removed from the magnets, and 5 mL of Miltenyi buffer are added to the column to flush out the CD14+ fraction by pushing the plunger into the column. The flushed fractions are collected in a fresh 50 mL Falcon and volume is adjusted to 30 mL using Miltenyi buffer, cells are centrifuged for 10 min at 300×g. The obtained cell pellet is resuspended in 10 mL RPMI w/o FBS, and cell density is determined using a hematologic analyser (Sysmex XS-500i).
(§8) A compound dilution plate is made in 100% DMSO by 3-fold dilution of 10 mM stock solution. An intermediate dilution plate (10× final concentration) is made by diluting the compound dilution plate 50-fold in RPMI medium.
(§9) 10 μL of the 10× final concentration compound is added to the cells and incubated for 1 h at 37° C. before addition of trigger. No trigger conditions/trigger conditions are spiked with equal final DMSO concentrations of 0.2% DMSO. 10 μL of 10×LPS (final conc. 200 ng/mL) solution are added to all wells except for the ‘no trigger wells’ where 10 μL medium is added. Supernatant is collected after 4 h of LPS triggering.
A Lumitrac 600 Greiner 384-well plate is coated with 40 μL of capture antibody (final concentration of 1 μg/mL in 1×PBS) and stored overnight at 4° C. The next day the plate is washed three times with PBST (PBS+0.05% Tween20) and once with PBS followed by the addition of 100 μL of blocking buffer (1% BSA-5% Sucrose) and plates are sealed and incubated for at least 4 h at RT. After washing the plate once with PBST and once with PBS, 40 μL of standard or sample are added (IL-10 standard curve is prepared using a 1/2 serial dilution starting from 2000 pg/mL; dilutions are made in dilution buffer (PBS+1% BSA)). […] Plates are washed twice with PBST, and once with PBS, whereafter 35 μL of Strep-HRP conjugate (0.5 μg/mL final concentration diluted in dilution buffer) is added. Plates are incubated in the dark, at RT for at least 45 min but no longer than 1 h. Plates are washed twice with PBST, and once with PBS. Thereafter, 50 μL of luminol substrate is added to each well (prepared according to manufacturer's instructions), and incubated for 5 min at RT protected from light.
To quantify these increases, fold changes (FC) compared to ‘LPS only’ are calculated for each concentration tested and the maximal FC is calculated (IL-10 FCmax): […]

SIK2 = target: T3, SIK2 (Homo sapiens, UniProt Q9H0K1); assay: ADP-Glo kinase assay, SIK2; assay type: biochemical
T3 construct: purchased ThermoFisher Scientific PV4792
T3 sequence (Q9H0K1 whole entry): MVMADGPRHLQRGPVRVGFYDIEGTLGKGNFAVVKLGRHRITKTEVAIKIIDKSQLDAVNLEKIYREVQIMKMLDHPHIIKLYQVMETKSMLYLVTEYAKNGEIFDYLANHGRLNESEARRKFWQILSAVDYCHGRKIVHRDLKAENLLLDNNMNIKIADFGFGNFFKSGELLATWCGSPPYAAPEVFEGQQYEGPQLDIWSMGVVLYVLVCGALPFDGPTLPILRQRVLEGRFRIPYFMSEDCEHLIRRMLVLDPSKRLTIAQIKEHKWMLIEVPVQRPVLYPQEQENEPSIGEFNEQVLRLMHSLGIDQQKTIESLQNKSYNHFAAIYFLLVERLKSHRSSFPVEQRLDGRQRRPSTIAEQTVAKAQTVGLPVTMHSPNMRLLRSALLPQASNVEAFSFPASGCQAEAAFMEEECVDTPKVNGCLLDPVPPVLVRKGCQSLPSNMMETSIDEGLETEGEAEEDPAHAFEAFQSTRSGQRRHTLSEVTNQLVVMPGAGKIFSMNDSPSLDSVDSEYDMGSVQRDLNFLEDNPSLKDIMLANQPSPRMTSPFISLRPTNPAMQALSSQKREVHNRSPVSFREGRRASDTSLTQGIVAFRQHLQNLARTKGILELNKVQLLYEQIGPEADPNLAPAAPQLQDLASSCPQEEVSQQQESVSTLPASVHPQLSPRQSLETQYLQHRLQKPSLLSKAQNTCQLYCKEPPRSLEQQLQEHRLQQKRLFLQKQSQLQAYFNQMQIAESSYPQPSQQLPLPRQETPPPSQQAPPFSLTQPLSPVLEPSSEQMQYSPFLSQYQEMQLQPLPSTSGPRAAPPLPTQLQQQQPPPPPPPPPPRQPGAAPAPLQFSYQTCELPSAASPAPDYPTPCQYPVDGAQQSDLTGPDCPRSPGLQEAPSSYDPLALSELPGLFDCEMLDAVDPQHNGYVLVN
How it was run: as §1

[2] = test system: LPS-induced TNFα in monocytes; assay: Monocytes assay: LPS-triggered TNFα (ELISA); assay type: cell-based, human; conditions: Homo sapiens, Monocyte, LPS-triggered TNFα inhibition
Protocol: as §2, §3, §4, §5, §6, §7, §8, §9
The plate is then washed once with PBST (PBS+0.05% Tween20) and once with PBS followed by the addition of 100 μL of blocking buffer (1% Bovine Serum Albumin (BSA)-5% Sucrose) and plates are sealed and incubated for at least 4 h at RT. After washing the plate once with PBST and once with PBS, […]. Plates are washed twice with PBST, and once with PBS, after which 35 μL of the detection antibody is added (final concentration 0.25 μg/mL diluted in dilution buffer) and plates are incubated for at least 2 h at RT. Plates are washed twice with PBST, and once with PBS, whereafter 35 μL of Strep-HRP conjugate (0.5 μg/mL final concentration diluted in dilution buffer) is added. Plates are incubated in the dark, at RT for at least 45 min but no longer than 1 h. Plates are washed twice with PBST, and once with PBS. Thereafter, 50 μL of luminol substrate is added to each well (prepared according to manufacturer's instructions), and incubated for 5 min at RT protected from light.
To measure the inhibition of LPS induced TNFα, percentage inhibition (PIN) values are calculated for all concentrations tested, compared to controls.

[3] = test system: LPS-induced TNFα in monocyte-derived macrophages; assay: MdM assay: LPS-triggered TNFα (ELISA); assay type: cell-based, human; conditions: Macrophage; human MdM; LPS 200 ng/mL; supernatant after 20 h; inhibition of TNFα; read-out: TNFα EC50
Protocol: This assay evaluates illustrative compounds of the invention for their inhibition of LPS-induced TNFα and LPS triggered IL-10 secretion in monocyte-derived macrophages. PBMCs are isolated from human blood samples (buffycoats). The buffy coat is aseptically transferred into a 50 mL Falcon tube, and diluted 1/2 in PBS. Falcon tubes are filled with 20 mL LymphoprepTM, on top of which 25 mL of the buffy coat is carefully added, tubes are centrifuged for 35 min at 400 g in temperature controlled centrifuge, without brake, at 25° C. PBMCs are aspirated from the white interface layer between sample and LymphoprepTM. PBMCs are washed five times in PBS. […] PBMCs are centrifuged at 300×g for 10 min and resuspended at a density of 1.0*10^7 cells/80 μL Miltenyi buffer (PBS, pH 7.4, 1% FBS, 2 mM EDTA). Starting from this point of the protocol all steps are performed on ice. 20 μL of CD14+ micro-beads are added per 1.0*10^7 cells, the tube is mixed and incubated for 15 min in the fridge at 4° C. Cell suspension volume is adjusted to total volume of 100 mL using Miltenyi buffer, mixed gently and subsequently centrifuged for 10 min at 300×g. Supernatant is discarded and cell pellet is resuspended in 12 mL of Miltenyi buffer. Four LS columns are placed in the MACS Separator (magnet) from Miltenyi Biotec, and are prewet by rinsing with 3 mL of MACS buffer per column. Three mL of cell suspension is added onto the column (max 1*10^8 of labelled cells/column), and columns are subsequently washed 3 times with 3 mL of Miltenyi buffer. The columns are removed from the magnets, and 5 mL of Miltenyi buffer are added to the column to flush out the CD14+ fraction by pushing the plunger into the column. The flushed fractions are collected in a fresh 50 mL Falcon and volume is adjusted to 30 mL using Miltenyi buffer, cells are centrifuged for 10 min at 300×g. The obtained cell pellet is resuspended in 10 mL RPMI w/o FBS, and cell density is determined using a hematologic analyser (Sysmex XS-500i). […] On day 10, MdMs are triggered and compound is added. A compound dilution plate is made in 100% DMSO by 3-fold dilution of 10 mM stock solution. An intermediate dilution plate (10× final concentration) is made by diluting the compound dilution plate […] in RPMI medium. Medium is carefully removed from cell plates using multichannel pipette, and replaced by 80 μL fresh medium. 10 μL of the 10× final concentration compound is added to the cells and incubated for 1 hour at 37° C. before addition of trigger. No trigger conditions/trigger conditions are spiked with equal final DMSO concentrations of 0.2% DMSO. 10 μL of 10×LPS (final conc. 200 ng/mL) solution are added to all wells except for the 'no trigger wells' where 10 μL medium is added. Supernatant is collected after 2 h (IL-10 determination) and after 20 h (TNFα determination) of LPS triggering. […] The plate is then washed once with PBST (PBS+0.05% Tween20) and once with PBS followed by the addition of 100 μL of blocking buffer (1% Bovine Serum Albumin (BSA) -5% Sucrose) and plates are sealed and incubated for at least 4 h at RT. After washing the plate once with PBST and once with PBS, 40 μL of standard or sample are added (TNFα standard curve is prepared using a 1/2 serial dilution starting from 16000 pg/mL; dilutions are made in dilution buffer (PBS+1% BSA)). Plates are washed twice with PBST, and once with PBS, after which 35 μL of the detection antibody is added (final concentration 0.25 μg/mL diluted in dilution buffer) and plates are incubated for at least 2 h at RT. Plates are washed twice with PBST, and once with PBS, where after 35 μL of Strep-HRP conjugate (0.5 μg/mL final concentration diluted in dilution buffer) is added. […] Plates are washed twice with PBST, and once with PBS. Thereafter, 50 μL of luminol substrate is added to each well (prepared according to manufacturer's instructions), and incubated for 5 min at RT protected from light.

T1 sequence (P57059 whole entry): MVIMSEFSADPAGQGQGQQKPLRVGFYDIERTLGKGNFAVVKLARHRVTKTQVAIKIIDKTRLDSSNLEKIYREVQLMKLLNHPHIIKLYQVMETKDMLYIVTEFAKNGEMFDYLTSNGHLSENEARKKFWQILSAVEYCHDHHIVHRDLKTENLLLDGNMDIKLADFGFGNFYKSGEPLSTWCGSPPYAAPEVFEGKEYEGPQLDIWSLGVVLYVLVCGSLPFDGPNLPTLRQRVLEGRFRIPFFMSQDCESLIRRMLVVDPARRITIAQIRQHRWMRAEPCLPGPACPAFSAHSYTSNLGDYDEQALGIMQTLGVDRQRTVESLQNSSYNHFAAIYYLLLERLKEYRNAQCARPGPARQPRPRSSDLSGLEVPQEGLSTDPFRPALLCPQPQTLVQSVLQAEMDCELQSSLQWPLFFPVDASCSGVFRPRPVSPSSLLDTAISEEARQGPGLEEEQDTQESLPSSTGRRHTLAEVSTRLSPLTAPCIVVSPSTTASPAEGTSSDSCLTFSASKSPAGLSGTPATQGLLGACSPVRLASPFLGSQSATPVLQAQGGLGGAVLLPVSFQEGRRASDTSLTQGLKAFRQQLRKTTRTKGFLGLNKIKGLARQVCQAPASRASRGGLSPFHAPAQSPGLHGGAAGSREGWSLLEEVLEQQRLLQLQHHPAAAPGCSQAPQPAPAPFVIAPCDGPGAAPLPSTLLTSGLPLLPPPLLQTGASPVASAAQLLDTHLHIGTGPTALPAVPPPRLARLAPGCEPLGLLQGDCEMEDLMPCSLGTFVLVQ

Compound | IC50 (SIK1) [nM] | IC50 (SIK3) [nM] | IC50 (SIK2) [nM] | EC50 [3] [nM] | maximal fold induction [1] | EC50 [2] [nM]
COc1cc(-c2cnn3cc(C(C)(C)C#N)ccc23)cc(OC(F)F)c1C(=O)N[C@@H]1C[C@@H]1F (racemic) [Cpd 233, 4-[6-(1-cyano-1-methyl-ethyl)pyrazolo[1,5-a]pyridin-3-yl]-2-(difluoromethoxy)-N-(2-fluorocyclopropyl)-6-methoxy-benzamide] | – | – | – | – | < 1.5 | 100 to 1000
COc1cc(-c2cnc3cc(C(C)(C)OC)ccn23)cc(OC(F)F)c1C(=O)NC1CC1 [Cpd 120, N-cyclopropyl-2-(difluoromethoxy)-6-methoxy-4-[7-(1-methoxy-1-methyl-ethyl)imidazo[1,2-a]pyridin-3-yl]benzamide] | > 500 | 0.01 to 10 | > 500 | 100 to 1000 | – | –
COc1cc(-c2cnc3cc(C(C)(O)C(C)C)ccn23)cc(OC(F)F)c1C(=O)NC1CC1 (centres unmarked) [Cpd 135, N-cyclopropyl-2-(difluoromethoxy)-4-[7-(1-hydroxy-1,2-dimethyl-propyl)imidazo[1,2-a]pyridin-3-yl]-6-methoxy-benzamide] | > 500 | 10 to 100 | > 500 | 100 to 1000 | – | –
COc1cc(-c2cnn3cc(C(C)(C)C#N)ccc23)cc(OC(F)F)c1C(=O)N[C@H]1C[C@H]1F [Cpd 234, 4-[6-(1-cyano-1-methyl-ethyl)pyrazolo[1,5-a]pyridin-3-yl]-2-(difluoromethoxy)-N-[(1S,2R)-2-fluorocyclopropyl]-6-methoxy-benzamide] | – | – | – | – | < 1.5 | 100 to 1000

Continued, in another order:

IC50 (SIK1) [nM] | IC50 (SIK3) [nM] | IC50 (SIK2) [nM] | EC50 [3] [nM] | Compound | maximal fold induction [1] | EC50 [2] [nM]
> 500 | 0.01 to 10 | > 500 | – | COc1cc(-c2cnc3cc(C(C)(C)C#N)ccn23)cc(OC(F)F)c1C(=O)N[C@@H]1C[C@H]1F (racemic) [Cpd 225, 4-[7-(1-cyano-1-methyl-ethyl)imidazo[1,2-a]pyridin-3-yl]-2-(difluoromethoxy)-N-(2-fluorocyclopropyl)-6-methoxy-benzamide] | < 1.5 | 100 to 1000
> 500 | 0.01 to 10 | > 500 | 100 to 1000 | COc1cc(-c2cnc3cc(C4(C#N)CCCC4)ccn23)cc(OC(F)F)c1C(=O)NC1CC1 [Cpd 53, 4-[7-(1-cyanocyclopentyl)imidazo[1,2-a]pyridin-3-yl]-N-cyclopropyl-2-(difluoromethoxy)-6-methoxy-benzamide] | – | –
> 500 | 0.01 to 10 | 10 to 100 | 100 to 1000 | COc1cc(-c2cnc3cc(C4CCCN(C)C4)ccn23)cc(OC(F)F)c1C(=O)NC1CC1 (centres unmarked) [Cpd 67, N-cyclopropyl-2-(difluoromethoxy)-6-methoxy-4-[7-(1-methyl-3-piperidyl)imidazo[1,2-a]pyridin-3-yl]benzamide] | – | –
> 500 | 0.01 to 10 | 10 to 100 | 1000 to 5000 | COc1cc(-c2cnc3cc(C4CCN(C)CC4)ccn23)cc(OC(F)F)c1C(=O)NC1CC1 [Cpd 68, N-cyclopropyl-2-(difluoromethoxy)-6-methoxy-4-[7-(1-methyl-4-piperidyl)imidazo[1,2-a]pyridin-3-yl]benzamide] | – | –
